Results from patent publication EP1246824B1, “CARBOXAMIDE DIAZEPIN DERIVATIVES, PREPARATION METHOD, USE AS MEDICINES, PHARMACEUTICAL COMPOSITIONS AND USE THEREOF” (Aventis Pharma S.A., priority 1999, dated 2001).
Like-named read-outs stand apart in the source and are kept apart here.

Legend:
Type in all cases: biochemical
Papain = biological target: T1, Papain (Carica papaya, UniProt P00784); assay: Inhibition of Papain (protocol as for Cathepsine K)
T1 construct: purchased Sigma
T1 sequence (P00784 134-345): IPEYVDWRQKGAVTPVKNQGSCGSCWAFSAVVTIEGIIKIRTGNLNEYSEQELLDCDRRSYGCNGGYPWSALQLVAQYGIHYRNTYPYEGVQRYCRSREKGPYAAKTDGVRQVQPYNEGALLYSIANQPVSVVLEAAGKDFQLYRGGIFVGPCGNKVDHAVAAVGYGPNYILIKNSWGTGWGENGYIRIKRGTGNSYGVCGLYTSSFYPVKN
Experimental: (§1) Les produits à tester (10 mM) sont dilués à 1 mM en DMSO et repartis dans des plaques 96 puits polystyrène Nunc à raison de 2 µl par puits. La colonne 12 de la plaque est réservée pour les contrôles et reçoit donc […] de DMSO (sans produits) par puits. Les plaques sont conservées à -80°C et décongelées le jour de l'expérience.
(§2) Les produits sont dilués à 50 µM par addition de 38 µl de tampon réaction : acétate de sodium 100 mM, EDTA 5 mM, DTT 1 mM pH 5,5. L'addition ainsi que tous les pipetages suivant sont réalisés par un pipeteur 96 cônes CybiWell. Après mélange des solutions, chaque produit est transféré dans 2 puits (duplicates) d'une plaque 384 puits noire Greiner à raison de 10 µl par puits. On peut donc tester 2 plaques 96 dans une plaque 384.
(§3) Une solution de substrat à 50 µM, Z-Val-arg-AMC (Calbiochem), est préparée dans le tampon réaction . Le substrat, est ensuite distribué dans tous les puits de la plaque 384 (20 µl par puits).
(§4) Une solution de Cathepsine K à 12,5 ng/ml est préparée dans le tampon réaction et distribuée dans tous les puits de la plaque 384 (20 µl par puits) exceptés les 16 puits servant de contrôles 100 % d'inhibition (colonne 23 et 24, lignes I à P) qui recevront 20 µl de tampon sans enzyme. Les contrôles […] d'inhibition sont réalisés dans les colonnes 23 et 24, lignes A à H qui ne contiennent pas de produits.
(§5) Les plaques sont ensuite incubées 2H à température ambiante, puis lues sur Fluoroskan (Labsystems) : excitation 390 nm; émission 460 nm
(§6) Les concentrations finales de chacun des réactifs sont : Produits 10 µM, Substrat 20 µM, enzyme 5 ng/ml.
(§7) Les % d'inhibition pour chacun des produits sont calculés en utilisant les points à 0 et 100 % d'inhibition de chaque plaque comme références. Les produits présentant une inhibition significative sont ensuite retestés sur une gamme de concentration allant de 50 à 0,5µM pour déterminer une IC50.
Etude de l'inhibition de Papain:
Protocole identique à celui de Cathepsine K exceptés : • Papain (Sigma), solution à 50 ng/ml, concentration finale 20 ng/ml • Incubation 30 min à température ambiante

Cathepsine K = biological target: T2, Cathepsine K (Homo sapiens, UniProt P43235); assay: Inhibition of Cathepsine K (fluorogenic substrate Z-Val-arg-AMC); conditions: substrate Z-Val-arg-AMC 20 µM, enzyme 5 ng/ml, pH 5.5, 2 h at room temperature; concentration range 50 to 0.5 µM; read-out: IC50 µM Cathepsin K
T2 sequence (P43235 115-329): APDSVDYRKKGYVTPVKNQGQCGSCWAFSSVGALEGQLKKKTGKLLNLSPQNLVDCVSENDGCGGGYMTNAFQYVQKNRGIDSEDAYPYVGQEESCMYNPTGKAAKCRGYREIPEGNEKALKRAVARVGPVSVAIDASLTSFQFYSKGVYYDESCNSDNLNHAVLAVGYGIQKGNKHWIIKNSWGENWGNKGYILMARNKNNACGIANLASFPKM
Experimental: Etude de l'inhibition de Cathepsine K :
as §1, §2, §3, §4, §5, §6, §7

Cathepsine B = biological target: T3, Cathepsine B (Homo sapiens, UniProt P07858); assay: Inhibition of Cathepsine B (fluorogenic substrate Z-arg-arg-AMC); conditions: substrate Z-arg-arg-AMC 20 µM, enzyme 16 ng/ml, 1 h at room temperature; read-out: IC50 µM Cathepsin B
T3 construct: purchased Calbiochem
Experimental: as §1, §2, §3, §4, §5, §6, §7
Etude de l'inhibition de Cathepsine B: […]

Row | Compound | IC50 (Cathepsine K) | IC50 (Cathepsine B) | also measured
1 | CC(C)(C)Oc1ccc(C[C@H](NC(=O)[C@@H]2CCCN3C(=O)CC[C@H](NC(=O)Nc4ccc(Oc5ccccc5)cc4)C(=O)N23)C(=O)C=[N+]=[N-])cc1 [Exemple 54, 9-[(9S)-[[(4-phenoxyphenyl)amino]carbonyl]amino]-N-[(2S)-4-diazo-1-[4-[(1,1-dimethyl)ethoxy]phenyl]-3-oxo-2-butyl]-6H-(1S)-pyridazino[1,2-a][1,2]diazepine-1-carboxamide] | – | – | IC50 (Papain): 15 µM
2 | COC(=O)CCCC(=O)OCC(=O)[C@H](Cc1ccccc1)NC(=O)[C@@H]1CCCN2C(=O)CC[C@H](NC(=O)Nc3ccc(Oc4ccccc4)cc3)C(=O)N12 [Exemple 217] | – | – | IC50 (Papain; read-out: IC50 µM Papain, enzyme 20 ng/ml, 30 min at room temperature): 7 µM
3 | C=CCOC(=O)CC[C@H](NC(=O)[C@@H]1CCCN2C(=O)CC[C@H](NS(C)(=O)=O)C(=O)N12)C(=O)COC(=O)c1c(Cl)cccc1Cl [Exemple 150, (4S) 6-[(2,6-dichlorobenzoyl)oxy]-4-[[[(1S,9S)-9-[(methylsulfonyl)amino]-octahydro-6,10-dioxo-6H-pyridazino[1,2-a] [1,2]diazepine-1-yl]carbonyl]amino]-5-oxo-Hexanoatede (2-propenyle)] | 6 µM | 0.6 µM | –
4 | CC(C)C[C@H](NC(=O)[C@@H]1CCCN2C(=O)CC[C@H](NS(=O)(=O)c3ccc(C(F)(F)F)cc3)C(=O)N12)C(=O)C=[N+]=[N-] [Exemple 347, 9-[(9S)-[[4-(trifluoromethyl)phenyl]sulfonyl]amino]-N-((3S)-1-diazo-5-methyl-2-oxo-3-hexyl)-octahydro-6,10-dioxo-6H-(1S)-pyridazino[1,2-a][1,2]diazepine-1-carboxamide] | 12 µM | – | –
5 | C=CCOC(=O)CC[C@H](NC(=O)[C@@H]1CCCN2C(=O)CC[C@H](NC(=O)NCCc3cccs3)C(=O)N12)C(=O)CSc1nnnn1-c1ccccc1 [Exemple 138, (4S) 6-[(1-phenyl-1H-tetrazol-5-yl)thio]-4-[[[(1S,9S)-9-[[[[2-(thien-2-yl)-ethyl]amino]carbonyl]amino]-octahydro-6,10-dioxo-6H-pyridazino[1,2-a][1,2]diazepine-1-yl]carbonyl]amino]-5-oxo-Hexanoatede (2-propenyle)] | – | – | IC50 (Papain; enzyme 20 ng/ml, 30 min at room temperature, read-out: IC50 µM Papain): 8 µM
6 | (4S) 6-diazo-4-[[[(1S,9S)-9-[[[[2-(p-2-yl)-ethyl]amino]carbonyl]amino]-octahydro-6,10-dioxo-6H-pyridazino[1,2-a][1,2]diazepine-1-yl]carbonyl]amino]-5-oxo-Hexanoate de (2-propenyle) [Exemple 44] | 2 µM | – | –
7 | C=CCOC(=O)CC[C@H](NC(=O)[C@@H]1CCCN2C(=O)CC[C@H](NC(=O)NC3CCCCC3)C(=O)N12)C(=O)COC(=O)c1c(Cl)cccc1Cl [Exemple 122, (4S) 6-[(2,6-dichlorobenzoyl)oxy] -4-[[[(1S,9S)-9-[[(cyclohexylamino)carbonyl]amino]-octahydro-6,10-dioxo-6H-pyridazino[1,2-a][1,2]diazepine-1-yl]carbonyl]amino]-5-oxo-Hexanoatede (2-propenyle)] | 18 µM | 0.7 µM | –
8 | C=CCOC(=O)CC[C@H](NC(=O)[C@@H]1CCCN2C(=O)CC[C@H](NC(=O)NCCc3cccs3)C(=O)N12)C(=O)COC(=O)c1c(Cl)cccc1Cl [Exemple 141, (4S) 6-[(2,6-dichlorobenzoyl)oxy]-4-[[[(1S,9S)-9-[[[[2-(thien-2-yl)-ethyl]amino]carbonyl]amino]-octahydro-6,10-dioxo-6H-pyridazino[1,2-a][1,2]diazepine-1-yl]carbonyl]amino]-5-oxo-Hexanoatede (2-propenyle)] | 9 µM | 0.7 µM | –
